Data as given in US12577231B2, “Androgen receptor PROTACS” (GlaxoSmithKline Intellectual Property Development Limited, priority 2023, dated 2026).
Numbering of substitutions follows the chain as printed.

Key:
[1] = biological target: T1, Androgen receptor W742L (Homo sapiens, UniProt P10275, W742L); assay: Degradation of overexpressed Androgen Receptor in A549 cells (HiBiT), W742L; format: cell-based; conditions: A549 cells overexpressing AR W742L, cycloheximide, 24 hours
T1 construct: expressed in transfected cells; host or cells: A549, transduced, puromycin selected
T1 sequence (P10275 1-920 W742L): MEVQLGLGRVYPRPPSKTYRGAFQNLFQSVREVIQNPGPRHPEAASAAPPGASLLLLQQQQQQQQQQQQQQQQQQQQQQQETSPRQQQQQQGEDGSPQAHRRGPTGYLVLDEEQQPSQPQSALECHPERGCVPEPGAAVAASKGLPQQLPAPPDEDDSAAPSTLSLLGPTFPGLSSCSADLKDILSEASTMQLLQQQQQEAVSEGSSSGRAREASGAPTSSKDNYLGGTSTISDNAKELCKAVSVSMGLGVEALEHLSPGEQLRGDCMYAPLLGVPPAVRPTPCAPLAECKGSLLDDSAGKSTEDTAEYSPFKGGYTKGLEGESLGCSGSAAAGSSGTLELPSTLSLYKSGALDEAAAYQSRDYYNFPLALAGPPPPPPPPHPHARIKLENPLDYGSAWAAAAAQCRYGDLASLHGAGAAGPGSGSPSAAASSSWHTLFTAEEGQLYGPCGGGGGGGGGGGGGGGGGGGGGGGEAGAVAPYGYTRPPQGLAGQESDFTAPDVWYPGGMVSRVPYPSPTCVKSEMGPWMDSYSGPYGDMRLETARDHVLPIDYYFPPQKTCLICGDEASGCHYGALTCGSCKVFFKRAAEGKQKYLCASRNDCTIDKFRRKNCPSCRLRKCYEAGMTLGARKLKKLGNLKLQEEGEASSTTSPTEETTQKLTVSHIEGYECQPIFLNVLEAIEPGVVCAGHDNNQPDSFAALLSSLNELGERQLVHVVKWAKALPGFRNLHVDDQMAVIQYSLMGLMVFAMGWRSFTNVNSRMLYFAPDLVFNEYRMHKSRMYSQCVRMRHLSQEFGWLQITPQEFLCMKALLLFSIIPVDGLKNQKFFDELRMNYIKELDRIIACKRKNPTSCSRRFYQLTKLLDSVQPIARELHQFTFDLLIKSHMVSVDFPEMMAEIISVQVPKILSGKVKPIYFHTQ
Experimental: (§1) A549 cells were transduced to express wild type androgen receptor and Androgen receptor containing the following mutations (L702H, H875Y W742C W742L F877L, T878A and T878A/H875Y) with HiBiT tags. Transduced cells following puromycin selection were maintained in a humidified incubator (at 37° C. and 5% CO2 in the DMEM medium supplemented with 1% (v/v) Pen/Strep, 1% (v/v) Glutamax and 10% (v/v) FBS. A549 cells expressing each AR construct were detached from plate and counted. Cell suspensions at density 0.2 million per mL were prepared. Cell suspension was supplemented with 100 μg/mL of cycloheximide to block protein synthesis. Cells were preincubated with cycloheximide for 1 hr before seeding. Cells were seeded onto 384-well plate at density of 5,000 in 25 μL per well. A two fold serial dilution of test compounds, starting from 1 μM (row A) in 2-fold serial dilution series across the column using Tecan D300e dispenser. […]
(§2) Nano-Glo HiBiT Lytic reagent was prepared by adding LgBiT protein and Nano-Glo® substrate to lytic buffer pre-equilibrated at room temperature following manufacturer protocol (https://www.promega.co.uk/resources/protocols/technical-manuals/101/nanoglo-luciferase-assay-system-protocol). […] The plates were then centrifuged (100×G, 1 min) and incubated on shaker for 10 mins before taking readings on Pherastar Luminescence microplate reader. […]

[2] = biological target: T2, Androgen receptor F877L (Homo sapiens, UniProt P10275, F877L); assay: Degradation of overexpressed Androgen Receptor in A549 cells (HiBiT), F877L; format: cell-based; conditions: A549 cells overexpressing AR F877L, cycloheximide, 24 hours
T2 construct: expressed in transfected cells; host or cells: A549, transduced, puromycin selected
T2 sequence (P10275 1-920 F877L): T1 sequence (P10275 1-920 W742L) with L742W, F877L
Experimental: as §1, §2

[3] = in vivo; conditions: male, Wistar Han, rat, po
Experimental: Systemic exposure of various forms of N-((1r,3r)-3-(4-cyano-3-methoxyphenoxy)-2,2,4,4-tetramethylcyclobutyl)-4-(4-((4-(4-(2,4-dioxotetrahydropyrimidin-1(2H)-yl)-1H-pyrazolo[4,3-c]pyridin-1-yl)piperidin-1-yl)methyl)piperidin-1-yl)-3-fluorobenzamide were assessed following oral administration of 30 mg/kg of a suspension formulation (1% methylcellulose (aq)) or following oral administration of 35 mg/kg of a suspension formulation (100% PEG400) in the male Wistar Han rat. […] The sampling period was 72 hours, and the data is reported in the attached table as mean±SD (n=3).

Summary pXC50 [1]: 8.93
Summary pXC50 [2]: 8.84
AUC0-t ([3]; 30 mg/kg): 7220 ± 1220 ng·h/mL
Cmax ([3]; 30 mg/kg): 318 ± 50 ng/mL
Tmax ([3]; 30 mg/kg): 8 h
AUC0-t ([3]; 35 mg/kg): 26200 ± 1750 ng·h/mL
Cmax ([3]; 35 mg/kg): 849 ± 98 ng/mL
Tmax ([3]; 35 mg/kg): 8.7 ± 3 h
Structure (SMILES): COc1cc(O[C@H]2C(C)(C)[C@H](NC(=O)c3ccc(N4CCC(CN5CCC(n6ncc7c(N8CCC(=O)NC8=O)nccc76)CC5)CC4)c(F)c3)C2(C)C)ccc1C#N [Example 20, N-((1r,3r)-3-(4-Cyano-3-methoxyphenoxy)-2,2,4,4-tetramethylcyclobutyl)-4-(4-((4-(4-(2,4-dioxotetrahydropyrimidin-1(2H)-yl)-1H-pyrazolo[4,3-c]pyridin-1-yl)piperidin-1-yl)methyl)piperidin-1-yl)-3-fluorobenzamide]
